Results on 15 molecules are retold here after patent US20250115613A1, “DIARYL COMPOUND AS TUBULIN/SRC DUAL TARGET INHIBITOR” (Wuhan Humanwell Innovative Drug Research and Development …, priority 2022, published 2025).

In brackets after ≈: the same amount, converted by molar mass. Like-named read-outs stand apart in the source and are kept apart here.

One data set concerns A-431 cells. Description: Inhibition of A-431 cell proliferation. It is filed as cell-based. The conditions noted are these: Homo sapiens, 96 h, incubated 4 days. How it is done: (§1) Human cutaneous squamous cell carcinoma cell A-431 (ATCC, CRL-1555) and actinic keratosis patient-derived cell HT 297.T (ATCC, CRL-7782) proliferation assays were used to detect the inhibitory effect of small molecular compounds on cell proliferation.
(§2) A-431 cells and HT 297.T cells were cultured in DMEM medium containing 10% fetal bovine serum and grown at 37° C. in a 5% CO2 incubator. Cells on logarithmic phase were seeded into a 96-well cell culture plate at 1000 cells/well, 100 μL per well, and then cultured overnight at 37° C. in a 5% CO2 incubator. The next day, 100 μL of gradient-diluted 2× test compound solution was added to each well, with DMSO serving as a positive control, and 10 μM staurosporine (Aladdin, S102392) was set as a negative control group. After the addition of the compounds, the culture plate was incubated for another 4 days at 37° C. in a 5% CO2 incubator. After incubation, the Steady-Glo® luciferase assay system (Promega, G9243) was used according to the supplier's instructions to measure the fluorescence signal value on the Envision 2104 Multilabel Reader. The inhibition rate was calculated by the following formula, then the curve was plotted with the Log value of the inhibitor concentration as the X-axis and the inhibition rate as the Y-axis, and the IC50 was calculated using Graphpad 8.0.
(§3) Inhibition %=(positive control group signal−test well signal)/(positive control group signal−negative control group signal)*100

Data set [1] in a line: Pharmacokinetic test in mice. It is filed as in vivo. Conditions: mouse, plasma. As for the experimental part: For the pharmacokinetic test in mice, 3 male ICR mice, 20 to 25 g, were used, fasted overnight, and administered by tail vein injection (1 mg/kg or 5 mg/kg). Blood was collected before the administration, and at 15 min, 30 min, 1 hour, 2 hours, 4 hours, 8 hours, and 24 hours after the administration. Another 3 mice were taken and administered by oral gavage (5 mg/kg), and blood was collected before the administration, and at 15 min, 30 min, 1 hour, 2 hours, 4 hours, 8 hours, and 24 hours after the administration. Blood samples were centrifuged at 6800 g at 2 to 8° C. for 6 min, and plasma was collected and stored at −80° C. The plasma at each time point was taken and added with an acetonitrile solution containing internal standard in 3 to 5 times the amount. The mixture was vortexed and mixed for 1 min, and centrifuged at 13,000 rpm at 4° C. for 10 min. The supernatant was collected, added with water in 3 times the amount, and mixed. An appropriate amount of the mixture was taken for LC-MS/MS analysis. The main pharmacokinetic parameters were analyzed using WinNonlin 7.0 software with non-compartmental model.

The nature of data set [2]: Human liver microsome stability test. The class given is in vitro ADME. The conditions noted are these: human liver microsomes (Corning), NADPH, 37° C. How it is done: The human liver microsome stability test was performed by incubating the compound and human liver microsomes in vitro. First, the compound to be tested was prepared as a 10 mM stock solution in DMSO solvent, and then the compound was diluted to 0.5 mM with acetonitrile. Human liver microsomes (Corning) were diluted with PBS into a microsome/buffer solution, and the solution was used to dilute 0.5 mM compound into a working solution, in which the concentration of the compound was 1.5 μM, and the concentration of human liver microsomes was 0.75 mg/mL. A deep-well plate was taken, 30 μL of the working solution was added per well, and then 15 μL of pre-heated 6 mM NADPH solution was added thereto to initiate a reaction, and the reaction was incubated at 37° C. At 0 min, 5 min, 15 min, 30 min, and 45 min of the incubation, 135 μL of acetonitrile was added to the corresponding wells to terminate the reaction. After the reaction was terminated with acetonitrile at the last time point of 45 min, the deep-well plate was vortexed and shaken for 10 min (600 rpm), and then centrifuged for 15 min. After centrifugation, the supernatant was collected, and added with purified water in a ratio of 1:1 to perform LC-MS/MS detection. A ratio of a peak area of compound to a peak area of internal standard at each time point was obtained, and the peak area ratios of the compound at 5 min, 15 min, 30 min, and 45 min were compared with the peak area ratio at 0 min to calculate the remaining percentage of the compound at each time point. T1/2 was calculated by using Graphpad 5 software.
Background: Liver microsomes are vesicles of endoplasmic reticulum, rich in cytochrome P450 enzymes.

A further data set has as its system tubulin monomer. Description: Inhibition test of tubulin monomer polymerization (Tubulin polymerization assay kit). It is filed as biochemical. The conditions noted are these: maximum fluorescence signal of polymerization curve; 5 μL of 12.5 μM compound solution; 37° C.; higher value = lower inhibitory efficiency. As for the experimental part: Tubulin polymerization assay kit (cytoskeleton, Cat. #BK011P) was used to conduct the compound inhibition test of tubulin monomer polymerization.
Before the test, the 96-well plate (Corning Costar, Cat. #3686) supplied with the kit was first placed in a microplate reader (MD, SpectraMax M5) and heated to 37° C., maintained for 10 minutes. The 96-well plate was then removed, and 5 μL of 12.5 μM compound solution or blank solution was added thereto. The 96-well plate was then placed back into the microplate reader and incubated at 37° C. for 1 minute to heat the compound solution to 37° C. The 96-well plate was removed and 50 μL of reaction mixture prepared according to the supplier's instructions was quickly added to each well, completing the sample addition within 1 minute to avoid the formation of bubbles. The 96-well plate was then immediately placed back into the microplate reader, shaken for 5 seconds, and using the Kinetic mode, continuous detection was carried out at 37° C. for 30 to 60 minutes under the conditions of excitation light at 360 nm and emission light at 420 nm, with detection every 30 seconds. Taking the detection time as the X-axis and the fluorescence signal value as the Y-axis, the tubulin monomer polymerization curve was obtained. As shown in FIG. 1 and Table 1, the larger the Vmax value and the higher the maximum fluorescence signal value of the polymerization curve, the lower the inhibitory efficiency of the compound.

Data set [3] is described as follows: Thermodynamic solubility test. The class given is physicochemical. Conditions: thermodynamic from solid. As for the experimental part:
Phosphate buffer saline (PBS) with a pH of 7.4, FeSSIF solution with a pH of 6.5, and FaSSGF solution with a pH of 1.6 were prepared. The compound was accurately weighed and added to prepared phosphate buffer saline with a pH of 7.4, FeSSIF solution with a pH of 6.5, and FaSSGF solution with a pH of 1.6 to prepare into a solution with a concentration of 4 mg/mL. The solution was shaken at a speed of 1000 rpm for 1 hour, and then incubated overnight at room temperature. The incubated solution was centrifuged at 12,000 rpm for 10 minutes to remove undissolved particles, and the supernatant was transferred to a new centrifuge tube. After the supernatant was appropriately diluted, an acetonitrile solution containing internal standard was added, and a standard curve prepared with the same matrix was used for quantification.

The subject of another data set is HT 297.T cells. As to the kind of experiment: Inhibition of HT 297.T cell proliferation. It is filed as cell-based. Conditions: Homo sapiens, 96 h, incubated 4 days. As for the experimental part: as §1, §2, §3
The mark [4] stands for this setting: male, ICR, mice, oral gavage 5 mg/kg.
Setting [5] is: male ICR mice, intravenous injection 5 mg/kg.
Setting [6] is: FeSSIF solution, FeSSIF pH 6.5, incubated overnight at room temperature, read-out: Solubility FeSSIF (pH 6.5).
The mark [7] stands for this setting: phosphate buffer saline (PBS), aqueous buffer, PBS pH 7.4, incubated overnight at room temperature, read-out: Solubility PBS (pH 7.4).
Setting [8] is: male ICR mice, intravenous injection 1 mg/kg.

Usually IC50 stands for the concentration that inhibits the measured activity by half. Lower therefore signals higher potency. By AUC(0-t) is commonly meant exposure summed from dosing to a finite time, without extrapolation to infinity. As a reminder, the Cmax is the maximum level reached in the sampled fluid or tissue. Usually clearance stands for the rate of elimination divided by the concentration. High values mean efficient removal, low ones inefficient removal. For orientation: half-life means the time in which the quantity being followed falls by half. High values mean slow loss, low ones fast loss. A word on the solubility: it is the concentration that dissolves in the medium under given conditions.

For `C[C@@H]1COCCN1CCOc1ccc(-c2ccc(CC(=O)NCc3ccccc3F)nc2)c(F)c1` [Compound I-31, (R)-2-(5-(2-fluoro-4-(2-(3-methylmorpholino)ethoxy)phenyl)pyridin-2-yl)-N-(2-fluorobenzyl)acetamide], the half-inhibitory concentration (IC50) in the data set with A-431 cells worked out at 10.9 nM.
Regarding `Cc1cc(OCCN2C[C@H]3COC[C@H]3C2)ccc1-c1ccc(CC(=O)NCc2ccccc2F)nc1` [Compound I-33, N-(2-fluorobenzyl)-2-(5-(2-methyl-4-(2-((3aR,6aS)-tetrahydro-1H-furo[3,4-c]pyrrol-5(3H)-yl)ethoxy)phenyl)pyridin-2-yl)acetamide], in the data set with A-431 cells, the IC50 was determined as 49.4 nM.
On the same count and under the same terms, the figure for `O=C(Cc1ccc(-c2ccc(OCCN3CC4(C3)CS(=O)(=O)C4)cc2)cn1)NCc1ccccc1` [Compound I-18, N-benzyl-2-(5-(4-(2-(2,2-dioxido-2-thia-6-azaspiro[3.3]heptan-6-yl)ethoxy)phenyl)pyridin-2-yl)acetamide] is 22.3 nM.
`O=C(Cc1ccc(-c2ccc(OCCN3C[C@H]4COC[C@H]4C3)cc2Cl)cn1)NCc1ccccc1F` [Compound I-34, 2-(5-(2-chloro-4-(2-((3aR,6aS)-tetrahydro-1H-furo[3,4-c]pyrrol-5(3H)-yl)ethoxy)phenyl)pyridin-2-yl)-N-(2-fluorobenzyl)acetamide]: in the data set with A-431 cells, the 50% inhibitory concentration (IC50) was 14.8 nM.
For `C[C@H]1COCCN1CCOc1ccc(-c2ccc(CC(=O)NCc3ccccc3F)nc2)c(F)c1` [Compound I-32, (S)-2-(5-(2-fluoro-4-(2-(3-methylmorpholino)ethoxy)phenyl)pyridin-2-yl)-N-(2-fluorobenzyl)acetamide], it took 9.22 nM to reach half-maximal inhibition in the data set on A-431 cells (IC50).
Molecule `O=C(Cc1ccc(-c2ccc(OCCN3C[C@H]4COC[C@H]4C3)cc2Cl)cn1)NCc1ccccc1` [Compound I-30, N-benzyl-2-(5-(2-chloro-4-(2-((3aR,6aS)-tetrahydro-1H-furo[3,4-c]pyrrol-5(3H)-yl)ethoxy)phenyl)pyridin-2-yl)acetamide] gave an IC50 in the data set on A-431 cells of 9.12 nM. In data set [1] (setting [4]), the AUC(0-t) was 508 ng·h/mL and the Cmax stood at 364 ng/mL. Besides, in data set [1] (setting [5]), the AUC(0-t) came to 852 ng·h/mL and the clearance is 97.2 mL/min/kg. The molecule also came in with a half-life at 1 μM in data set [2] of 10.7 min.
Regarding `Cc1cc(OCCN2C[C@H]3COC[C@H]3C2)cc(C)c1-c1ccc(CC(=O)NCc2ccccc2)nc1` [Compound I-29, N-benzyl-2-(5-(2,6-dimethyl-4-(2-((3aR,6aS)-tetrahydro-1H-furo[3,4-c]pyrrol-5(3H)-yl)ethoxy)phenyl)pyridin-2-yl)acetamide], the IC50 in the data set on A-431 cells was 45.1 nM.
`O=C(Cc1ccc(-c2ccc(OCCNC3CN(C(=O)CC4CC4)C3)cc2)cn1)NCc1ccccc1` [Compound I-26, N-benzyl-2-(5-(4-(2-((1-(2-cyclopropylacetyl)azetidin-3-yl)amino)ethoxy)phenyl)pyridin-2-yl)acetamide]: in the data set with tubulin monomer, the Maximum signal value is reported as 408. The same molecule displayed a concentration for half-maximal inhibition (IC50) in the data set on A-431 cells of 13.7 nM. Also, in data set [2], the half-life at 1 μM worked out at 42.8 min. For the same molecule, the solubility in data set [3] (setting [6]) stood at 480 µg/mL (≈ 962 µM); in data set [3] (setting [7]) it was 22.4 µg/mL (≈ 45 µM).
Take `C[C@H]1COCCN1CCOc1ccc(-c2ccc(CC(=O)NCc3ccccc3)nc2)c(F)c1` [Compound I-24A, (S)—N-benzyl-2-(5-(2-fluoro-4-(2-(3-methylmorpholino)ethoxy)phenyl)pyridin-2-yl)acetamide]: the IC50 with HT 297.T cells was 8.13 nM. In addition, the IC50 with A-431 cells is 6.74 nM. In data set [1] (setting [4]), this molecule had an AUC(0-t) of 1090 ng·h/mL and a maximum concentration (Cmax) of 1190 ng/mL. Besides, in data set [1] (setting [5]), the AUC(0-t) was 2520 ng·h/mL and the clearance was 33.2 mL/min/kg.
For the molecule `O=C(Cc1ccc(-c2ccc(OCCN3CCOCC3)cc2)cn1)NCc1ccccc1` [Control compound I, Tirbanibulin, reference compound], in data set [1] (setting [5]), the area under the curve AUC(0-t) was found to be 5250 ng·h/mL and the clearance was 15.8 mL/min/kg.
For `O=C(Cc1ccc(-c2ccc(OCCN3CCS(=O)(=O)CC3)cc2)cn1)NCc1ccccc1` [Compound I-3, N-benzyl-2-(5-(4-(2-(1,1-dioxidothiomorpholino)ethoxy)phenyl)pyridin-2-yl)acetamide], the IC50 in the data set on A-431 cells came out at 14.3 nM.
`Cc1cc(OCCN2CC3(COC3)C2)ccc1-c1ccc(CC(=O)NCc2ccccc2)nc1` [Compound I-5, 2-(5-(4-(2-(2-oxa-6-azaspiro[3.3]heptan-6-yl)ethoxy)-2-methylphenyl)pyridin-2-yl)-N-benzylacetamide]: in the data set on A-431 cells, the concentration for half-maximal inhibition (IC50) is 16.3 nM. Further, in data set [1] (setting [5]), the AUC(0-t) was found to be 2630 ng·h/mL and the clearance is 32.7 mL/min/kg.
Regarding `O=C(Cc1ccc(-c2ccc(OCCN3C[C@H]4COC[C@H]4C3)cc2F)cn1)NCc1ccccc1` [Compound I-1, N-benzyl-2-(5-(2-fluoro-4-(2-((3aR,6aS)-tetrahydro-1H-furo[3,4-c]pyrrol-5(3H)-yl)ethoxy)phenyl)pyridin-2-yl)acetamide], in the data set with A-431 cells, the half-inhibitory concentration (IC50) is 11.6 nM. In data set [1] (setting [8]), this molecule gave an area under the curve AUC(0-t) of 299 ng·h/mL and a clearance of 47.7 mL/min/kg.
As for `O=C(Cc1ccc(-c2ccc(OCCN3CC4(COC4)C3)cc2F)cn1)NCc1ccccc1` [Compound I-4, 2-(5-(4-(2-(2-oxa-6-azaspiro[3.3]heptan-6-yl)ethoxy)-2-fluorophenyl)pyridin-2-yl)-N-benzylacetamide], the concentration for half-maximal inhibition (IC50) was 21.9 nM in the data set with HT 297.T cells and 8.67 nM with A-431 cells. The molecule also gave a half-life at 1 μM in data set [2] of 47.5 min.
`N#Cc1cc(OCCN2CCOCC2)ccc1-c1ccc(CC(=O)NCc2ccccc2)nc1` [Compound I-27, N-benzyl-2-(5-(2-cyano-4-(2-morpholinoethoxy)phenyl)pyridin-2-yl)acetamide] had a Maximum signal value with tubulin monomer of 0. The IC50 with A-431 cells amounted to 3.1 nM. Also, the solubility in data set [3] (setting [6]) turned out to be 833 µg/mL (≈ 1830 µM); in data set [3] (setting [7]), 85.7 µg/mL (≈ 188 µM).
